The source of these data is patent US5324725A, “7-fused 2-(piperazinoalkyl) indole derivatives, intermediates and compositions thereof” (Kali-Chemie Pharma GmbH, priority 1991, dated 1994).

The first series deals with Histamine-induced anaphylactoid reactions. Briefly: Inhibition of anaphylactoid cutaneous reaction induced by histamine. Type of series: in vivo, rat (Sprague-Dawley). The conditions noted are these: Rattus norvegicus, 1 h; rats, 2 × 10^-5 mol/kg p.o., one hour before challenge; histamine intradermal. The method, boiled down: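 Animals received 50 μl intradermal histamine (0.8 mg/ml in saline) in the flank opposite the antiserum site, just before i.v. ovalbumin plus blue dye. Test substance at 2×10^-5 mol/kg was given orally 1 h before challenge in water with 1% DMF and 1% Tween 20. Blue-dye exudation was scored visually at 30 min, giving % inhibition versus solvent controls.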
The molecule `Cc1ccnc(N2CCN(CCc3c(C)n4c5c(cccc35)CCC4)CC2)c1` [Example 1, 5,6-Dihydro-2-methyl-1-{2-[4-(4-methylpyridin-2-yl)piperazin-1-yl]ethyl}-4H-pyrrolo[3,2,1-ij]quinoline] returned an inhibition in vivo at 20 µmol/kg of 85%.
Consider `Cc1ccnc(N2CCN(CCc3c(C)n4c5c(cccc35)CCC4c3ccccc3)CC2)c1` (stereo not drawn) [Example 3, 5,6-dihydro-2-methyl-4-phenyl-1-{2-[4-(4-methylpyridine-2-yl)piperazin-1-yl]-ethyl}-4H-pyrrolo[3,2,1-ij]quinoline], for which the inhibition in vivo at 20 µmol/kg worked out at 93%.
The same measure, in the same setting: for `CCCCCCCC1CCc2cccc3c(CCN4CCN(c5cc(C)ccn5)CC4)c(C)n1c23` (stereo not drawn) [Example 4, 4-n-heptyl-5,6-dihydro-2-methyl-1-{2-[4-(4-methylpyridin-2-yl)piperazin-1-yl]ethyl}-4H-pyrrolo[3,2,1-ij]-quinoline] the value was 55%.
Turning to `COc1ccc(-c2c(CCN3CCN(c4cc(C)ccn4)CC3)c3cccc4c3n2CCC4)cc1` [Example 7, 2-(4-methoxy-phenyl)-1-{2-[4-(4-methylpyridin-2-yl)piperazin-1-yl]ethyl}-5,6-dihydro-4H-pyrrolo[3,2,1-ij]quinoline], the inhibition in vivo at 20 µmol/kg came to 35%.
Same read-out and setting: next, `Cc1ccnc(N2CCN(CCc3c(C)n4c5c(cc(Br)cc35)CCC4)CC2)c1` [Example 9, 8-Bromo-2-methyl-1-{2-[4-(4-methylpyridin-2-yl)piperazin-1-yl]ethyl}-5,6-dihydro-4H-pyrrolo[3,2,1-ij]quinoline]: 80%; `Cc1ccnc(N2CCN(CCc3c(C)n4c5c(cc([N+](=O)[O-])cc35)CCC4)CC2)c1` [Example 10, 2-Methyl-8-nitro-1-{2-[4-(4-methylpyridin-2-yl)-piperazin-1-yl]ethyl}-5,6-dihydro-4H-pyrrolo[3,2,1-ij]quinoline]: 75%.
The same measure, in the same setting: for `Cc1ccnc(N2CCN(CCc3c(C)n4c5c(cccc35)SCC4)CC2)c1` [Example 11, 5-Methyl-6-{2-[4-(4-methylpyridin-2-yl)piperazin-1-yl]ethyl}-2,3-dihydro-pyrrolo[1,2,3-de]-1,4-benzo-thiazine] the value was 93%; for `Cc1ccnc(N2CCN(CCc3c(-c4ccc(OCCCCO)cc4)n4c5c(cccc35)CCC4)CC2)c1` [Example 12, 2-[4-(4-Hydroxybutyloxy)-phenyl]-1-{2-[4-(4-methylpyridin-2-yl)piperazin-1-yl]ethyl}-5,6-dihydro-4H-pyrrolo[3,2,1-ij]quinoline], 25%.
Still for that read-out and setting: for `Cc1ccnc(N2CCN(CCc3cn4c5c(cccc35)CCC4)CC2)c1` [Example 13, 5,6-Dihydro-1-{2-[4-(4-methylpyridin-2-yl)piperazin-1-yl]ethyl}-4H-pyrrolo[3,2,1-ij]quinoline] the value was 68%; for `CCc1c(C(O)CN2CCN(c3cc(C)ccn3)CC2)c2cccc3c2n1CCC3` (stereo not drawn) [Example 14, 2-Ethyl-5,6-dihydro-1-{2-[4-(4-methylpyridin-2-yl)piperazin-1-yl]-1-hydroxyethyl}-4H-pyrrolo[3,2,1-ij]quinoline], 25%; for `CCc1c(CCN2CCN(c3cc(C)ccn3)CC2)c2cccc3c2n1CCC3` [Example 15, 2-Ethyl-5,6-dihydro-1-{2-[4-(4-methylpyridin-2-yl)piperazin-1-yl]ethyl}-4H-pyrrolo[3,2,1-ij]quinoline], 65%.
`Cc1ccnc(N2CCN(CCc3c(CO)n4c5c(cccc35)CCC4)CC2)c1` [Example 16, 5,6-dihydro-2-hydroxymethyl-1-{2-[4-(4-methylpyridin-2-yl)piperazin-1-yl]ethyl}-4H-pyrrolo[3,2,1-ij]quinoline] showed an inhibition in vivo at 20 µmol/kg of 73%.
Same read-out and setting: for `Cc1ccnc(N2CCN(CCc3c(C)n4c5c(cc(C(O)C(C)C)cc35)CCC4)CC2)c1` (stereo not drawn) [Example 19, 5,6-Dihydro-8-(1-hydroxy-2-methylpropyl)-2-methyl-1-{2-[4-(4-methylpyridin-2-yl)piperazin-1-yl]ethyl}-4H-pyrrolo-[3,2,1-ij]quinoline] the value was 95%.
The same measure, in the same setting: for `Cc1ccnc(N2CCN(CCc3c(C)n4c5c(cc(N)cc35)CCC4)CC2)c1` [Example 20, 8-Amino-5,6-dihydro-2-methyl-1-{2-[4-(4-methylpyridin-2-yl)piperazin-1-yl]ethyl}-4H-pyrrolo[3,2,1-ij]quinoline] the value was 95%; for `Cc1ccnc(N2CCN(CCc3c(C)n4c5c(cc(CC(C)C)cc35)CCC4)CC2)c1` [Example 21, 5,6-Dihydro-2-methyl-8-(2-methylpropyl)-1-{2-[4-(4-methylpyridin-2-yl)piperazin-1-yl]ethyl}-4H-pyrrolo[3,2,1-ij]quinoline], 90%.
Same read-out and setting: next, `CCCCC1CCc2cc(C(=O)C(C)C)cc3c(CCN4CCN(c5cc(C)ccn5)CC4)c(C)n1c23` (stereo not drawn) [Example 23, 4-n-Butyl-5,6-dihydro-8-(2-methyl-1-oxopropyl)-2-methyl-1-{2-[4-(4-methylpyridin-2-yl)piperazin-1-yl]ethyl}-4H-pyrrolo[3,2,1-ij]quinoline]: 95%; `CC(=O)Oc1cc2c3c(c1)c(CCN1CCN(c4cc(C)ccn4)CC1)c(C)n3CCC2` [Example 24, 8-Acetoxy-5,6-dihydro-2-methyl-1-{2-[4-(4-methyl-pyridin-2-yl)piperazin-1-yl]ethyl}-4H-pyrrolo[3,2,1-ij]quinoline]: 60%.
Regarding `Cc1ccnc(N2CCN(CCc3c(C)n4c5c(cc(NC(=O)c6ccccc6)cc35)CCC4)CC2)c1` [Example 25, 8-Benzoylamino-5,6-dihydro-2-methyl-1-{2-[4-(4-methylpyridin-2-yl)piperazin-1-yl]-ethyl}-4H-pyrrolo[3,2,1-ij]quinoline], the inhibition in vivo at 20 µmol/kg was 100%.
Molecule `CC(C)=Cc1cc2c3c(c1)c(CCN1CCN(c4cc(C)ccn4)CC1)c(C)n3CCC2` [Example 26, 5,6-Dihydro-2-methyl-8-(2-methylprop-1-enyl)-1-{2-[4-(4-methylpyridin-2-yl)piperazin-1-yl]ethyl}-4H-pyrrolo[3,2,1-ij]quinoline] yielded an inhibition in vivo at 20 µmol/kg of 90%.
On the same count and under the same terms, for `Cc1ccnc(N2CCN(CCc3c(C)n4c5c(cc(C(=O)C(C)C)cc35)CCC4)CC2)c1` [Example 27, 5,6-dihydro-2-methyl-8-(2-methyl-1-oxopropyl)-1-{2-[4-(4-methylpyridin-2-yl)piperazin-1-yl]ethyl}-4H-pyrrolo-[3,2,1-ij]quinoline] the value was 95%.
The same measure, in the same setting: next, `Cc1ccnc(N2CCN(CCc3c(C)n4c5c(cccc35)CC4C)CC2)c1` (stereo not drawn) [Example 33]: 93%; `Cc1c(CCN2CCN(c3ccccn3)CC2)c2cccc3c2n1CCC3` [Example 37]: 58%.
On the same count and under the same terms, next, `Cc1ccnc(N2CCN(CCc3c(-c4ccc(F)cc4)n4c5c(cccc35)CCC4)CC2)c1` [Example 47]: 20%; `COc1ccc(C2CCc3cccc4c(CCN5CCN(c6cc(C)ccn6)CC5)c(C)n2c34)cc1` (stereo not drawn) [Example 59]: 95%.
`Cc1ccnc(N2CCN(CCc3c(C)n4c5c(cc(NC(=O)C(C)C)cc35)CCC4)CC2)c1` [Example 60] had an inhibition in vivo at 20 µmol/kg of 95%.
On the same count and under the same terms, next, `Cc1ccnc(N2CCN(CCc3c(C)n4c5c(cccc35)CCC4c3ccc(O)cc3)CC2)c1` (stereo not drawn) [Example 61]: 100%; `C=CCCC1CCc2cccc3c(CCN4CCN(c5cc(C)ccn5)CC4)c(C)n1c23` (stereo not drawn) [Example 62]: 95%; `CCCCC1CCc2cc(OC)cc3c(CCN4CCN(c5cc(C)ccn5)CC4)c(C)n1c23` (stereo not drawn) [Example 63]: 95%.
Still for that read-out and setting: for `COc1ccc(C2CCc3cc(OC)cc4c(CCN5CCN(c6cc(C)ccn6)CC5)c(C)n2c34)cc1` (stereo not drawn) [Example 65] the value was 95%; for `Cc1ccnc(N2CCN(CCc3c(C)n4c5c(cc(C(=O)c6ccccc6)cc35)CCC4)CC2)c1` [Example 66], 70%; for `CC(=O)c1cc2c3c(c1)c(CCN1CCN(c4cc(C)ccn4)CC1)c(C)n3CCC2` [Example 67], 95%.
Still for that read-out and setting: next, `CCCCC1CCc2cccc3c(CCN4CCN(c5cc(C)ccn5)CC4)c(C)n1c23` (stereo not drawn) [Example 73, 4-n-butyl-5,6-dihydro-2-methyl-1-{2-[4-(4-methylpyridin-2-yl)piperazin-1-yl]ethyl}-4H-pyrrolo[3,2,1-ij]quinoline]: 95%; `CCCCC1CCc2cc(O)cc3c(CCN4CCN(c5cc(C)ccn5)CC4)c(C)n1c23` (stereo not drawn) [Example 76]: 100%.
In turn, `Cc1ccnc(N2CCN(CCc3c(C)n4c5c(cc(Cc6ccccc6)cc35)CCC4)CC2)c1` [Example 77] came in with an inhibition in vivo at 20 µmol/kg of 30%.
Same read-out and setting: for `Cc1ccnc(N2CCN(CCc3c(C)n4c5c(cc(N(C)C)cc35)CCC4)CC2)c1` [Example 81] the value was 82%; for `Cc1ccnc(N2CCN(CCc3c(C)n4c5c(ccc(C(O)C(C)C)c35)SCC4)CC2)c1` (stereo not drawn) [Example 90], 77%.
Still for that read-out and setting: for `Cc1ccnc(N2CCN(CCc3c(C)n4c5c(ccc(C(=O)C(C)C)c35)SCC4)CC2)c1` [Example 91] the value was 87%.

Tested on in another series: not listed separately
Briefly: Determination of the minimum toxic dose. Also on record: species or system male mice. The conditions noted are these: mouse, in vivo, po, 300 mg/kg, 1440 min. On the procedure: 2. Determination of the minimum toxic dose.
Maximum doses of 300 mg/kg of the test substance were administered orally to male mice weighing 20-25 g. The animals were observed carefully for 3 hours for toxicity symptoms. In addition, all symptoms and deaths over a period of 24 hours after administration were recorded. Associated symptoms were also observed and recorded. If death or severe toxic symptoms were observed, further mice were administered increasingly lower doses. The lowest dose which caused death or severe toxic symptoms is given as the minimum toxic dose in the following Table B.
With `Cc1ccnc(N2CCN(CCc3c(C)n4c5c(cccc35)CCC4)CC2)c1` [Example 1, 5,6-Dihydro-2-methyl-1-{2-[4-(4-methylpyridin-2-yl)piperazin-1-yl]ethyl}-4H-pyrrolo[3,2,1-ij]quinoline], the “Minimum toxic dose (lowest dose which caused death or severe toxic symptoms)” value worked out at 100 mg/kg.
The same measure, in the same setting: for `Cc1ccnc(N2CCN(CCc3c(C)n4c5c(cccc35)CCC4c3ccccc3)CC2)c1` (stereo not drawn) [Example 3, 5,6-dihydro-2-methyl-4-phenyl-1-{2-[4-(4-methylpyridine-2-yl)piperazin-1-yl]-ethyl}-4H-pyrrolo[3,2,1-ij]quinoline] the value was 300 mg/kg; for `Cc1ccnc(N2CCN(CCc3c(C)n4c5c(cccc35)SCC4)CC2)c1` [Example 11, 5-Methyl-6-{2-[4-(4-methylpyridin-2-yl)piperazin-1-yl]ethyl}-2,3-dihydro-pyrrolo[1,2,3-de]-1,4-benzo-thiazine], 100 mg/kg.
On the same count and under the same terms, for `Cc1ccnc(N2CCN(CCc3cn4c5c(cccc35)CCC4)CC2)c1` [Example 13, 5,6-Dihydro-1-{2-[4-(4-methylpyridin-2-yl)piperazin-1-yl]ethyl}-4H-pyrrolo[3,2,1-ij]quinoline] the value was 100 mg/kg.
Still for that read-out and setting: next, `CCc1c(C(O)CN2CCN(c3cc(C)ccn3)CC2)c2cccc3c2n1CCC3` (stereo not drawn) [Example 14, 2-Ethyl-5,6-dihydro-1-{2-[4-(4-methylpyridin-2-yl)piperazin-1-yl]-1-hydroxyethyl}-4H-pyrrolo[3,2,1-ij]quinoline]: 300 mg/kg.
